From publication PMC4373826, “Antiviral Effect of Methylated Flavonol Isorhamnetin against Influenza” (PLoS ONE, 2015)

Assays:
[1] = tested on: influenza A/PR/8/34 (H1N1); experiment: microbe, parasite or virus in culture; settings: MDCK
[2] = Cytotoxicity assay (EZ-Cytox) in MDCK cells; type: cell-based, canine; settings: dog; MDCK cells, 48 hr
Method: (§1) To determine the 50% cytotoxic concentration (CC50) for each of the tested flavonoid compounds, MDCK cells were seeded onto 96-well plates (NUNC, Penfield, NY, USA) at a density of 1 × 10^4 cells per well and incubated overnight for 80% confluence. MDCK cells were washed twice with PBS and the culture medium was replaced with medium containing serially diluted flavonoids (concentrations from 10μM up to 300 μM) for 48 hr at 37°C in a 5% CO2atmosphere. After the incubation period, the flavonoid-containing media was replaced with new media containing 10% EZ-Cytox (Daeil Lab Service, Seoul, South Korea), and the cells were incubated in the dark for 3 hr at 37°C in a 5% CO2 atmosphere. The optical density was measured at 480 nm using an x-Mark spectrophotometer (Bio-Rad, Hercules, CA, USA). Cytotoxicity was estimated by comparing the cell survival rate of the flavonoids-treated cells and the DMSO-treated cells with the control (virus-untreated) cells. The control cell values were arbitrarily set as the 100% survival rate. The treated cells values were normalized to the control cell values. The calculation of CC50 was carried out as described in detail in S1 Text.
(§2) The 50% cytotoxic concentration (CC50) was calculated according to the following equation:
(§3) Cytotoxicity (%) = [100-(ODt/ODs)] x100
(§4) ODt: The optical density (OD) of cells treated with the tested flavonoids.
(§5) ODs: The OD of cells treated with the control solvent (0.2 % DMSO).
(§6) After obtaining the results, we calculated the concentration that induces 50% cell death using the following equation:
(§7) (X2 - X1) X (50-Y1) / (Y2 - Y1) + X1. Where, X1 represents the lower concentration used in this experiment, while X2 represents the higher concentration. Y1 represents the mean of the percentage of the viable cells at X1 concentration. On the other hand, Y2 represents the mean of the percentage of the viable cells at X2 concentration.”

MDCK cells = experiment: Cytotoxicity assay (EZ-Cytox) in MDCK cells; type: cell-based, canine; settings: especially at 50μM and 100μM
Method: as §1, §2, §3, §4, §5, §6, §7

[3] = tested on: influenza A/PR/8/34 (H1N1); experiment: in vitro; settings: dog, SI (selective index, CC50/EC50), Post-treatment
[4] = tested on: influenza A/PR/8/34 (H1N1); type: cell-based, influenza A virus; settings: post-treatment 48 hr
[5] = tested on: influenza A/PR/8/34 (H1N1); settings: post-treatment

Structure (SMILES) | EC50 ([1]; 48 h, Post-treatment) [µM] | CC50 at 48 h [2] [µM] | cell viability of MDCK cells (MDCK cells) | selectivity ratio [3] | virus titer in HA assay (virus yield reduction) [4] | influenza virus-induced cell death [5] | EC50 ([1]; 0.5 h, Co-treatment (0.5 hr)) [µM] | EC50 ([1]; 1 h, Co-treatment (1 hr)) [µM] | EC50 ([1]; 2 h, Co-treatment (2 hr)) [µM] | EC50 ([1]; Pre-treatment (1 hr)) [µM] | EC50 ([1]; Pre-treatment (12 hr)) [µM] | EC50 ([1]; Pre-treatment (24 hr)) [µM]
COc1ccc(-c2cc(=O)c3c(O)cc(O)cc3o2)cc1O [Diosmetin, diosmetin] | 124 | – | – | – | – | – | – | – | – | – | – | –
O=C1C[C@@H](c2ccc(O)c(O)c2)Oc2cc(O)cc(O)c21 [Eriodictyol, eriodictyol] | 115 | 256 | significant decrease | 2 | – | – | – | – | – | – | – | –
O=c1c(O)c(-c2ccc(O)cc2)oc2cc(O)cc(O)c12 [Kaempferol, kaempferol] | 35 | 245 | – | 7 | significantly decreased | apparent suppression | – | – | – | – | – | –
O=c1c(O)c(-c2ccc(O)c(O)c2)oc2cc(O)cc(O)c12 [Quercetin, quercetin] | 30 | > 265 | – | > 9 | significantly decreased | apparent suppression | 106 | 62 | 43 | 78 | 85 | 98
